Read-outs that look alike come from different tables or passages of the source.
Columns and labels:
skin of healthy subjects = conditions: cited from earlier work
[1] = cited from earlier work; for sun protection factor (SPF): 290-400 nm
[2] = tested on: COL5A2 (Collagen, type V, alpha 2); assay: Differential gene fold expression analysis of skin biopsies; format: in vivo, human; conditions: RNA, biopsy of treated vs untreated skin after 6 weeks of application; participant; parentheses = not statistically significant; negative = decrease
Description: (§1) Differential gene fold expression analysis was used to analyze Malassezin and compound AB17151. Biopsies from human subjects were taken after 6 weeks of application of compounds. Two participants applied AB17151 and one participant applied Malassezin. Biopsies were taken of treated skin and, as a control and for comparison, from untreated skin.
(§2) In the Table, numbers in parentheses indicate changes that are not statistically significant. All numbers indicate fold change in expression. Negative values indicate decreases in activity. A minus-3-fold change in activity, for example, means that the value changed by minus-3-fold, meaning it changed to ⅓ of its original value.

[3] = tested on: COL1A1 (Collagen, type 1, alpha 1); assay: as above; format: in vivo, human; conditions: RNA, biopsy of treated vs untreated skin after 6 weeks of application; participant; parentheses = not statistically significant; negative = decrease
Description: as §1, §2

[4] = tested on: MMP7 (Matrix Metalloproteinase 7); assay: as above; format: in vivo, human; conditions: RNA, biopsy of treated vs untreated skin after 6 weeks of application; participant one; parentheses = not statistically significant; negative = decrease
Description: as §1, §2

[5] = tested on: COL1A2 (Collagen, type 1, alpha 2); assay: as above; format: in vivo, human; conditions: RNA, biopsy of treated vs untreated skin after 6 weeks of application, parentheses = not statistically significant, negative = decrease
Description: as §1, §2

[6] = tested on: COL3A1 (Collagen, type III, alpha 1); assay: as above; format: in vivo, human; conditions: RNA, biopsy of treated vs untreated skin after 6 weeks of application, parentheses = not statistically significant, negative = decrease
Description: as §1, §2

[7] = tested on: PCOLCE2 (Pro-Collagen C endopeptidase enhancer 2); assay: as above; format: in vivo, human; conditions: RNA, biopsy of treated vs untreated skin after 6 weeks of application, parentheses = not statistically significant, negative = decrease
Description: as §1, §2

[8] = tested on: COL5A1 (Collagen, type V, alpha 1); assay: as above; format: in vivo, human; conditions: RNA, biopsy of treated vs untreated skin after 6 weeks of application; participant; parentheses = not statistically significant; negative = decrease
Description: as §1, §2

subject's skin = assay: In vivo photoprotection, clinical erythema evaluation after UVB irradiation; parameters: species or system human; conditions: Malassezin 1% formulation, one Skin Type IV subject
Description: The Malassezin 1% formulation used in this study contained the following ingredients: Water (aqua)—65.939%; Dimethyl isosorbide—20.000%; Olive Oil Glycereth-8 Esters—3.000%; Glycerin—2.991%; Coconut Alkanes—2.700%; Hydroxyethyl Acrylate/Sodium Acryloyldimethyl Taurate Copolymer—1.700%; Malassezin—1.000%; Pentylene Glycol—1.000%; Phenoxyethanol—0.640%; Coco-Caprylate/Caprate—0.300%; Caprylyl Glycol—0.200%; Chlorphenesin—0.160%; Sorbitan Isostearate—0.140%; Tocopherol—0.100%; Polysorbate 60-0.080%; and Disodium EDTA—0.050%.
A Skin Type IV […] was included in this Proof of Concept study.
A template of 6 squares was placed on the lower left back (1.5 cm×1.5 cm) of the test subject.
Twenty-four hours after irradiation, the subject returned for MED assessment.
A second right lower square was treated twice daily from day 4 to day 7, and a third medial square for one application on day 7. The product vehicle was applied for 7 days twice daily on the left back. The subject returned to the research center for irradiation on day 7. Each test site was irradiated with 120 mJ of UVB exposure. The subject returned in 24 hours for assessment of phototoxicity/photoprotection.
The subject continued the experiment, receiving Malassezin 1% for a total of 14 days. […]

[9] = tested on: lines and wrinkles, skin texture, tone and firmness; assay: Subject self-assessment questionnaire; format: in vivo, human; conditions: percentage of 11 subjects with a score of 6 or 5, formulations pooled
Experimental: (§3) Malassezin formulations were evaluated for their effect on fine lines and wrinkles. In this study, human subjects with skin containing areas of hyperpigmentation were randomized to one of 3 groups. Product use groups included Malassezin 0.05%, 0.1%, and 1.0%. One mL of product (formulations detailed below) was applied to the face of subjects twice daily. Five minutes after the morning application, an SPF 50 sunscreen was applied to protect the treated areas from sun. Each subject had assessments at Baseline, 2, 4, 8, 14, 18 and 22 weeks. Treatment was ceased at 14 weeks. Week 18 and week 22 observations were to determine any return towards baseline.
A subject self-assessment was completed at every visit. A total number of eleven (11) subjects were asked to respond to the questions regarding the improvement (if any) in their lines and wrinkles and related skin texture, tone, and firmness. Each answer was ranked from 6 to 1, with each having the meaning: 6—Strongly agree, 5—Agree, 4—Agree somewhat, 3—Disagree somewhat, 2—Disagree, and 1—Strongly disagree. The percentage of subjects answering with a score of 6 or 5 was calculated and is presented in the data below.

fine lines and wrinkles = assay: Fine lines and wrinkles, dermatologist evaluation (Lemperle classification); format: in vivo, human; conditions: 11 subjects, 0.1%, 0.5% and 1.0% formulations pooled
Experimental: as §3, with “Product use groups included Malassezin 0.05%, 0.1%, and 1.0%.” left out
Eleven subjects using the test ingredient completed week 14. […] An M.D. dermatologist with experience in evaluating fine lines and wrinkles performed evaluations on the subjects in this study and obtained the measurements tabulated below. Wrinkle assessment, classification, and evaluation were performed as described in G. Lemperle et al., A classification of facial wrinkles, Plast. Reconstr. Surg. 108: 1735 (2001), incorporated by reference herein in its entirety. For each subject, the percentage Malassezin formulation is indicated.

Adverse events recording = format: in vivo, human; conditions: all visits; Malassezin 0.1%, 0.5%, 1.0% formulations twice daily to the face
Experimental: Evaluation: Colorimetry measurements using the Mexameter MX 18 were used at Baseline, and Weeks 2, 4, 8, 14, 18, and 22. Clinical assessments of depigmentation was performed in the treated area. Assessments were performed at Baseline, and Weeks 2, 4, 8, 14, 18, and 22. Brightening assessments included brightening of normal skin and/or severity of dyschromia, if present (see scale). Global improvement was measured at the same time intervals. At all visits any adverse events (AE) was to be recorded including itching, burning, erythema, edema, dryness, scaling or skin peeling (see rating scales). […] Positive percentages indicate increased pigmentation, which indicates darkening. “Conc.” indicates the concentration of Malassezin in the formulation administered to the subject.

O=C(c1c[nH]c2ccccc12)c1nccc2c1[nH]c1ccccc12 [pityriacitrin, Pityriacitrin]
UV protective effect, overall (skin of healthy subjects; in vitro and in vivo test methods): very weak | in vivo confirmation of the SPF determined in vitro (skin of healthy subjects; pityriacitrin 5% cream): confirmed the validity of the SPF | sun protection factor (SPF) ([1]; pityriacitrin concentration 1.25% in cream): 1.4 | sun protection factor (SPF) ([1]; pityriacitrin concentration 2.5% in cream): 1.5 | sun protection factor (SPF) ([1]; pityriacitrin concentration 5% in cream): 1.7 | UVB and UVA transmission ([1]; pityriacitrin cream formulations): decreased with increasing pityriacitrin concentrations

COC(=O)c1c(C(c2c[nH]c3ccccc23)C2CC2)[nH]c2ccccc12 (centres unmarked) [AB17151]
COL5A2 fold change in expression [2]: 2.23 fold change | COL1A1 fold change in expression [3]: 5.61 fold change | MMP7 fold change in expression [4]: 1.79 fold change | COL1A2 fold change in expression ([5]; participant one): 1.99 fold change | COL1A2 fold change in expression ([5]; participant): 6.97 fold change | COL3A1 fold change in expression ([6]; participant one): 2.59 fold change | COL3A1 fold change in expression ([6]; participant): 6.26 fold change | PCOLCE2 fold change in expression ([7]; participant one): 1.57 fold change | PCOLCE2 fold change in expression ([7]; participant): 1.5 fold change | COL5A1 fold change in expression [8]: 6.1 fold change

O=Cc1c(Cc2c[nH]c3ccccc23)[nH]c2ccccc12 [Malassezin]
COL3A1 fold change in expression ([6]; participant two): 1.7 fold change | UV-protective properties, conclusion of the Proof of Concept study (subject's skin): UV-protective properties | Self-assessment: I have smoother skin texture ([9]; Week 2): 45.45% | Self-assessment: My Lines and wrinkles are less visible ([9]; Week 2): 36.36% | Self-assessment: My skin firmness has improved ([9]; Week 2): 36.36% | Self-assessment: My skin has a brighter tone ([9]; Week 2): 45.45% | Self-assessment: My skin looks more youthful and healthy ([9]; Week 2): 45.45% | Self-assessment: My skin texture is less coarse ([9]; Week 2): 54.55% | Self-assessment: Overall skin texture is improved ([9]; Week 2): 54.55% | Self-assessment: Overall skin tone is improved ([9]; Week 2): 54.55% | Self-assessment: I have smoother skin texture ([9]; Week 4): 63.64% | Self-assessment: My Lines and wrinkles are less visible ([9]; Week 4): 54.55% | Self-assessment: My skin firmness has improved ([9]; Week 4): 63.64% | Self-assessment: My skin has a brighter tone ([9]; Week 4): 63.64% | Self-assessment: My skin looks more youthful and healthy ([9]; Week 4): 63.64% | Self-assessment: My skin texture is less coarse ([9]; Week 4): 63.64% | Self-assessment: Overall skin texture is improved ([9]; Week 4): 63.64% | Self-assessment: Overall skin tone is improved ([9]; Week 4): 63.64% | Self-assessment: I have smoother skin texture ([9]; Week 8): 81.82% | Self-assessment: My Lines and wrinkles are less visible ([9]; Week 8): 63.64% | Self-assessment: My skin firmness has improved ([9]; Week 8): 63.64% | Self-assessment: My skin has a brighter tone ([9]; Week 8): 72.73% | Self-assessment: My skin looks more youthful and healthy ([9]; Week 8): 81.82% | Self-assessment: My skin texture is less coarse ([9]; Week 8): 72.73% | Self-assessment: Overall skin texture is improved ([9]; Week 8): 81.82% | Self-assessment: Overall skin tone is improved ([9]; Week 8): 72.73% | Self-assessment: I have smoother skin texture ([9]; Week 14): 90.91% | Self-assessment: My Lines and wrinkles are less visible ([9]; Week 14): 90.91% | Self-assessment: My skin firmness has improved ([9]; Week 14): 72.73% | Self-assessment: My skin has a brighter tone ([9]; Week 14): 81.82% | Self-assessment: My skin looks more youthful and healthy ([9]; Week 14): 72.73% | Self-assessment: My skin texture is less coarse ([9]; Week 14): 100.00% | Self-assessment: Overall skin texture is improved ([9]; Week 14): 90.91% | Self-assessment: Overall skin tone is improved ([9]; Week 14): 81.82% | Fine lines/wrinkles score, Average (fine lines and wrinkles; Week 0 (baseline)): 2.55 | Fine lines/wrinkles score, Average (fine lines and wrinkles; Week 2, P-value 0.024 (Student's T test)): 1.82 | Fine lines/wrinkles score, Average (fine lines and wrinkles; Week 4, P-value 0.011 (Student's T test)): 1.73 | Fine lines/wrinkles score, Average (fine lines and wrinkles; Week 8, P-value 0.011 (Student's T test)): 1.73 | Fine lines/wrinkles score, Average (fine lines and wrinkles; Week 14, P-value 0.011 (Student's T test)): 1.73 | adverse events (itching, burning, erythema, edema, dryness, scaling or skin peeling) (Adverse events recording): No AEs were recorded

Source: patent US20200276100A1, “PHOTOPROTECTIVE COMPOSITIONS CONTAINING MALASSEZIA-DERIVED COMPOUNDS AND/OR CHEMICAL ANALOGS THEREOF” (priority 2018, published 2020)
